Laboratory results reported in the NIST ThermoML archive (doi:10.1021/je100610v).

Tests used:
[1] = 101 kPa, Liquid; for speed of sound: Pulse-echo method
[2] = molar heat capacity at constant pressure; details: 101 kPa, Liquid
[3] = xn = mol fraction of the nth substance listed; details: 101 kPa, Liquid, x2 = 0; for speed of sound: Pulse-echo method

ClCCCCCCCl [1,6-dichlorohexane]
Details	mass density [kg/m3]	molar heat capacity at constant pressure [J/K/mol]	speed of sound [m/s]
[1], 293.01 K	–	–	1337.8
[1], 293.15 K	1068.33	–	–
[1], 298.15 K	1063.61	–	–
[1], 298.18 K	–	–	1319.7
[1], 303.15 K	1058.87	–	1302.4
[1], 308.14 K	–	–	1285
[1], 308.15 K	1054.14	–	–
[1], 313.15 K	1049.39	–	–
[1], 313.23 K	–	–	1267.4
[2], 293.15 K	–	239.21	–
[2], 294.15 K	–	239.5	–
[2], 295.15 K	–	239.69	–
[2], 296.15 K	–	240.02	–
[2], 297.15 K	–	240.35	–
[2], 298.15 K	–	240.64	–
[2], 299.15 K	–	240.85	–
[2], 300.15 K	–	241.15	–
[2], 301.15 K	–	241.46	–
[2], 302.15 K	–	241.8	–
[2], 303.15 K	–	242.06	–
[2], 304.15 K	–	242.34	–
[2], 305.15 K	–	242.62	–
[2], 306.15 K	–	242.83	–
[2], 307.15 K	–	243.21	–
[2], 308.15 K	–	243.49	–
[2], 309.15 K	–	243.73	–
[2], 310.15 K	–	244	–
[2], 311.15 K	–	244.35	–
[2], 312.15 K	–	244.68	–
[2], 313.15 K	–	244.91	–

CCCCCCC [heptane]
[1]
Details	mass density [kg/m3]	speed of sound [m/s]
292.7 K	–	1154.1
293.15 K	683.79	–
298 K	–	1131.1
298.15 K	679.56	–
302.98 K	–	1109.5
303.15 K	675.3	–
308.06 K	–	1087.4
308.15 K	671.02	–
313.15 K	666.71	–
313.45 K	–	1064.3

CCCCCCC [heptane] + ClCCCCCCCl
[3]
Details	mass density [kg/m3]	speed of sound [m/s]
292.7 K	–	1154.1
293.15 K	683.79	–
298 K	–	1131.1
298.15 K	679.56	–
302.98 K	–	1109.5
303.15 K	675.3	–
308.06 K	–	1087.4
308.15 K	671.02	–
313.15 K	666.71	–
313.45 K	–	1064.3
